Consider three compounds from US6498125B2, “Pyridine ketones useful as herbicides” (Syngenta Participations AG, priority 1998, dated 2002).

For the first test, the system named is Monocotyledonous and dicotyledonous test plants. As to the kind of experiment: Example B1: pre-emergence herbicidal action, 2 kg of AS/ha. The format is in vivo. Conditions: test plant Avena, 3 weeks, scale 1-9. Here is the method: Monocotyledonous and dicotyledonous test plants are sown in standard soil in plastic pots. Immediately after sowing, the test substances are sprayed on (500 l of water/ha) as an aqueous suspension (prepared from a 25% wettable powder (Example F3, b) according to WO 97/34485) or emulsion (prepared from a 25% emulsion concentrate (Example F1, c)), corresponding to a dosage of 2 kg of AS/ha. The test plants are then grown under optimum conditions in a greenhouse. After a test period of 3 weeks, the test is evaluated with a nine-level scale of ratings (1=complete damage, 9=no effect). Ratings of 1 to 4 (in particular 1 to 3) mean good to very good herbicidal action.
For the compound `Cc1nc(C(F)(F)Cl)ccc1C(=O)C1=C(O)C2CCC(C2)C1=O` (stereo not drawn) [Compound 1.195], the “pre-emergence action rating, Avena” value is 2.
Same read-out and setting: the same measure for `Cc1cc(C(=O)C2=C(O)C3CCC(C3)C2=O)c(C)nc1C(F)(F)F` (stereo not drawn) [Compound 1.313]: 3.
Same read-out and setting: the same measure for `Cc1nc(C(F)(F)F)ccc1C(=O)C1=C([O-])C2CCC(C2)C1=O.[K+]` (stereo not drawn) [Compound 1.376]: 2.

The test is the same for the next values; noted with them: test plant Cyperus, 3 weeks, scale 1-9.
As for `Cc1nc(C(F)(F)Cl)ccc1C(=O)C1=C(O)C2CCC(C2)C1=O` (stereo not drawn) [Compound 1.195], the “pre-emergence action rating, Cyperus” value came out at 1.
On to `Cc1cc(C(=O)C2=C(O)C3CCC(C3)C2=O)c(C)nc1C(F)(F)F` (stereo not drawn) [Compound 1.313], for which the “pre-emergence action rating, Cyperus” value is 1.
Same read-out and setting: the value for `Cc1nc(C(F)(F)F)ccc1C(=O)C1=C([O-])C2CCC(C2)C1=O.[K+]` (stereo not drawn) [Compound 1.376] was 1.

Still in this test, the particulars now being: test plant Setaria, 3 weeks, scale 1-9.
As for `Cc1nc(C(F)(F)Cl)ccc1C(=O)C1=C(O)C2CCC(C2)C1=O` (stereo not drawn) [Compound 1.195], the “pre-emergence action rating, Setaria” value was 1.
On the same count and under the same terms, the value for `Cc1cc(C(=O)C2=C(O)C3CCC(C3)C2=O)c(C)nc1C(F)(F)F` (stereo not drawn) [Compound 1.313] was 2; that for `Cc1nc(C(F)(F)F)ccc1C(=O)C1=C([O-])C2CCC(C2)C1=O.[K+]` (stereo not drawn) [Compound 1.376] was 1.

Still in this test, the particulars now being: test plant Sinapis, 3 weeks, scale 1-9.
Take `Cc1nc(C(F)(F)Cl)ccc1C(=O)C1=C(O)C2CCC(C2)C1=O` (stereo not drawn) [Compound 1.195]: the “pre-emergence action rating, Sinapis” value is reported as 1.
For the compound `Cc1cc(C(=O)C2=C(O)C3CCC(C3)C2=O)c(C)nc1C(F)(F)F` (stereo not drawn) [Compound 1.313], the “pre-emergence action rating, Sinapis” value is on record as 1.
As for `Cc1nc(C(F)(F)F)ccc1C(=O)C1=C([O-])C2CCC(C2)C1=O.[K+]` (stereo not drawn) [Compound 1.376], the “pre-emergence action rating, Sinapis” value is listed as 2.

The same test, now with this note: test plant Solanum, 3 weeks, scale 1-9.
As for `Cc1nc(C(F)(F)Cl)ccc1C(=O)C1=C(O)C2CCC(C2)C1=O` (stereo not drawn) [Compound 1.195], the “pre-emergence action rating, Solanum” value is 1.
Same read-out and setting: the same measure for `Cc1cc(C(=O)C2=C(O)C3CCC(C3)C2=O)c(C)nc1C(F)(F)F` (stereo not drawn) [Compound 1.313]: 1; for `Cc1nc(C(F)(F)F)ccc1C(=O)C1=C([O-])C2CCC(C2)C1=O.[K+]` (stereo not drawn) [Compound 1.376]: 1.

The test is the same for the next values; noted with them: test plant Stellaria, 3 weeks, scale 1-9.
Consider `Cc1nc(C(F)(F)Cl)ccc1C(=O)C1=C(O)C2CCC(C2)C1=O` (stereo not drawn) [Compound 1.195], for which the “pre-emergence action rating, Stellaria” value turned out to be 2.
Turning to `Cc1cc(C(=O)C2=C(O)C3CCC(C3)C2=O)c(C)nc1C(F)(F)F` (stereo not drawn) [Compound 1.313], the “pre-emergence action rating, Stellaria” value is on record as 2.
On the same count and under the same terms, the value for `Cc1nc(C(F)(F)F)ccc1C(=O)C1=C([O-])C2CCC(C2)C1=O.[K+]` (stereo not drawn) [Compound 1.376] was 2.

For the next test the test system is unchanged. As to the kind of experiment: Example B2: post-emergence herbicidal action, 2 kg of AS/ha. Type of test: in vivo. Conditions: test plant Avena, 4- to 6-leaf stage, about 18 days, scale 1-9. Also noted: key: 1 = complete damage, 9 = no effect. Here is the method:
Monocotyledonous and dicotyledonous test plants are grown in plastic pots with standard soil in a greenhouse and, in the 4- to 6-leaf stage, are sprayed with an aqueous suspension of the test substances of the formula 1, prepared from a 25% wettable powder (Example F3, b) according to WO 97134485) or with an emulsion of the test substances of the formula I, prepared from a 25% emulsion concentrate (Example F1, c) according to WO 97/34485), corresponding to a dosage of 2 kg of AS/ha (500 l of water/ha). The test plants are then grown further under optimum conditions in a greenhouse. After a test period of about 18 days, the test is evaluated with a nine-level scale of rating (1=complete damage, 9=no effect). Ratings of 1 to 4 (in particular 1 to 3) mean good to very good herbicidal action. In this test, the compounds of the formula I show strong herbicidal action.
For `Cc1nc(C(F)(F)Cl)ccc1C(=O)C1=C(O)C2CCC(C2)C1=O` (stereo not drawn) [Compound 1.195], the “post-emergence action rating, Avena” value was 2.
On to `Cc1cc(C(=O)C2=C(O)C3CCC(C3)C2=O)c(C)nc1C(F)(F)F` (stereo not drawn) [Compound 1.313], for which the “post-emergence action rating, Avena” value is reported as 2.
In the case of `Cc1nc(C(F)(F)F)ccc1C(=O)C1=C([O-])C2CCC(C2)C1=O.[K+]` (stereo not drawn) [Compound 1.376], the “post-emergence action rating, Avena” value is reported as 1.

The test is the same for the next values; noted with them: test plant Setaria, 4- to 6-leaf stage, about 18 days, scale 1-9.
As for `Cc1nc(C(F)(F)Cl)ccc1C(=O)C1=C(O)C2CCC(C2)C1=O` (stereo not drawn) [Compound 1.195], the “post-emergence action rating, Setaria” value is recorded as 2.
The same measure, in the same setting: the value for `Cc1cc(C(=O)C2=C(O)C3CCC(C3)C2=O)c(C)nc1C(F)(F)F` (stereo not drawn) [Compound 1.313] was 2.
Same read-out and setting: the same measure for `Cc1nc(C(F)(F)F)ccc1C(=O)C1=C([O-])C2CCC(C2)C1=O.[K+]` (stereo not drawn) [Compound 1.376]: 2.

The same test, now with this note: test plant Sinapis, 4- to 6-leaf stage, about 18 days, scale 1-9.
Regarding `Cc1nc(C(F)(F)Cl)ccc1C(=O)C1=C(O)C2CCC(C2)C1=O` (stereo not drawn) [Compound 1.195], the “post-emergence action rating, Sinapis” value was 1.
On the same count and under the same terms, the same measure for `Cc1cc(C(=O)C2=C(O)C3CCC(C3)C2=O)c(C)nc1C(F)(F)F` (stereo not drawn) [Compound 1.313]: 1; for `Cc1nc(C(F)(F)F)ccc1C(=O)C1=C([O-])C2CCC(C2)C1=O.[K+]` (stereo not drawn) [Compound 1.376]: 1.

The same test, now with this note: test plant Solanum, 4- to 6-leaf stage, about 18 days, scale 1-9.
With `Cc1nc(C(F)(F)Cl)ccc1C(=O)C1=C(O)C2CCC(C2)C1=O` (stereo not drawn) [Compound 1.195], the “post-emergence action rating, Solanum” value worked out at 2.
On the same count and under the same terms, the value for `Cc1cc(C(=O)C2=C(O)C3CCC(C3)C2=O)c(C)nc1C(F)(F)F` (stereo not drawn) [Compound 1.313] was 2.
Same read-out and setting: the same measure for `Cc1nc(C(F)(F)F)ccc1C(=O)C1=C([O-])C2CCC(C2)C1=O.[K+]` (stereo not drawn) [Compound 1.376]: 2.

Still in this test, the particulars now being: test plant Stellaria, 4- to 6-leaf stage, about 18 days, scale 1-9.
Consider `Cc1nc(C(F)(F)Cl)ccc1C(=O)C1=C(O)C2CCC(C2)C1=O` (stereo not drawn) [Compound 1.195], for which the “post-emergence action rating, Stellaria” value was determined as 2.
Regarding `Cc1cc(C(=O)C2=C(O)C3CCC(C3)C2=O)c(C)nc1C(F)(F)F` (stereo not drawn) [Compound 1.313], the “post-emergence action rating, Stellaria” value is 2.
Still for that read-out and setting: the same measure for `Cc1nc(C(F)(F)F)ccc1C(=O)C1=C([O-])C2CCC(C2)C1=O.[K+]` (stereo not drawn) [Compound 1.376]: 2.
